Reference: patent US10105367B2, “Therapeutic thiophene-, furan-, and pyridine-fused azolopyrimidin-5-(6h)-ones” (Dart Neuroscience (Cayman) Ltd., priority 2012, dated 2018)

Biological target: human PDE1B (Homo sapiens (Human), UniProt Q01064)
Experiment: PDE1B inhibitory assay (IMAP TR-FRET)
Details: 200 nM FAM-cAMP, Calmodulin, CaCl2; for PDE1B pIC50: negative log of half-maximal molar inhibitory concentration; for IC50: PDE1B pIC50, negative log of half-maximal molar inhibitory concentration

SMILES	PDE1B pIC50	IC50
COc1ccc(Cn2c(=O)n3ncnc3c3cc(CN4CC(C)OCC4C)cnc32)cc1 (centres unmarked) [Example 225]	>7	–
COc1ccc(Cn2c(=O)n3ncnc3c3c4c(sc32)CN(Cc2ccc3c(c2)OC(F)(F)O3)CC4)cc1 [Example 114]	–	100 to 1000 nM
COCCN1CCN(Cc2cnc3c(c2)c2ncnn2c(=O)n3Cc2ccc(OC)cc2)CC1 [Example 238]	–	1000 to 10000 nM
COc1ccc(Cn2c(=O)n3ncnc3c3cc(-c4ccc(OC)c(OC)c4)cnc32)cc1 [Example 189, 9-(3,4-Dimethoxyphenyl)-6-(4-methoxybenzyl)pyrido[3,2-e][1,2,4]triazolo[1,5-c]pyrimidin-5(6H)-one]	>7	–
COc1ccc(Cn2c(=O)n3ncnc3c3c4c(sc32)CN(CC2CCCOC2)CC4)c(F)c1 (centres unmarked) [Example 142]	>7	–
C[C@@H]1CN(Cc2cnc3c(c2)c2ncnn2c(=O)n3Cc2ccc(Cl)c(Cl)c2)C[C@H](C)O1 [Example 295]	–	100 to 1000 nM
COc1ccc(Cn2c(=O)n3ncnc3c3cc(CN4C[C@@H](C)O[C@@H](C)C4)cnc32)c(Br)c1 [Example 286]	–	1000 to 10000 nM
CCN1CCN(Cc2cc3c(s2)n(Cc2ccc(OC)cc2)c(=O)n2ncnc32)CC1=O [Example 34]	>7	–
COc1ccc(Cn2c(=O)n3ncnc3c3c(C)c(CN4C[C@@H](C)O[C@@H](C)C4)sc32)cc1 [Example 55]	>7	–
COc1ccc(Cn2c(=O)n3ncnc3c3cc(CCNC(=O)OCc4ccccc4)cnc32)cc1 [Example 204, Benzyl 2-(6-(4-Methoxybenzyl)-5-oxo-5,6-dihydropyrido[3,2-e][1,2,4]triazolo[1,5-c]pyrimidin-9-yl)ethylcarbamate]	–	100 to 1000 nM
COc1ccc(Cn2c(=O)n3ncnc3c3c4c(sc32)CN(C(C)C(F)F)CC4)cc1 (centres unmarked) [Example 151]	–	100 to 1000 nM
Cc1csc2c1c1ncnn1c(=O)n2Cc1ccc(-c2ccccc2)cc1 [Example 7]	<5	–
O=c1n(Cc2ccc(Cl)cc2)c2sc(Cc3ccccc3)cc2c2ncnn12 [Example 22]	–	100 to 1000 nM
COc1ccc(Cn2c(=O)n3ncnc3c3c4c(sc32)CN(CC2CCNCC2)CC4)cc1 [Example 182]	–	100 to 1000 nM
COc1ccc(Cn2c(=O)n3ncnc3c3c4c(sc32)N(Cc2ccc(Cl)cc2)CCC4)cc1OC [Example 153]	–	1000 to 10000 nM
COc1cc(F)c(Cn2c(=O)n3ncnc3c3cc(CN4C[C@@H](C)O[C@@H](C)C4)cnc32)c(F)c1 [Example 287]	>7	–
CCOc1ccc(Cn2c(=O)n3ncnc3c3cc(CN4C[C@@H](C)O[C@@H](C)C4)cnc32)cc1 [Example 301]	–	100 to 1000 nM
COc1ccc(Cn2c(=O)n3ncnc3c3cc(C(C)=O)cnc32)cc1 [Example 265, 9-Acetyl-6-(4-methoxybenzyl)pyrido[3,2-e][1,2,4]triazolo[1,5-c]pyrimidin-5(6H)-one]	–	100 to 1000 nM
O=c1n(Cc2ccc(OC(F)(F)F)cc2)c2sc3c(c2c2ncnn12)CCOC3 [Example 96]	–	1000 to 10000 nM
O=c1n(Cc2cccc(Cl)c2)c2sc3c(c2c2ncnn12)CCCC3 [Example 85]	–	100 to 1000 nM
CC(C)CCc1cc2c(s1)n(Cc1ccccc1Cl)c(=O)n1ncnc21 [Example 19]	–	1000 to 10000 nM
COc1ccc(Cn2c(=O)n3ncnc3c3ccc(CN4C[C@@H](C)O[C@@H](C)C4)nc32)cc1 [Example 257]	–	100 to 1000 nM

SMILES	PDE1B pIC50	IC50
Cc1csc2c1c1ncnn1c(=O)n2Cc1ccccc1Cl [Example 10]	–	1000 to 10000 nM
COc1ccc(Cn2c(=O)n3ncnc3c3ccc(CNCc4ccccc4)nc32)cc1 [Example 262]	–	100 to 1000 nM
COc1ccc(Cn2c(=O)n3ncnc3c3cc(CN4C[C@H](C)OC[C@@H]4C)cnc32)cc1 [Example 247]	>7	–
COc1ccc(Cn2c(=O)n3ncnc3c3c4c(sc32)N(CC2CCCOC2)CCC4)cc1 (centres unmarked) [Example 149]	>7	–
C[C@@H]1CN(Cc2cnc3c(c2)c2ncnn2c(=O)n3Cc2ccc(F)c(Cl)c2)C[C@H](C)O1 [Example 294]	–	100 to 1000 nM
C=C(OCC)c1cnc2c(c1)c1ncnn1c(=O)n2Cc1ccc(OC)cc1 [Example 216]	–	100 to 1000 nM
COc1ccc(Cn2c(=O)n3ncnc3c3ncc(Br)cc32)cc1 [Example 186]	–	1000 to 10000 nM
COc1ccc(Cn2c(=O)n3ncnc3c3c4c(sc32)CN(CCCS(C)(=O)=O)CC4)cc1 [Example 118]	>7	–
O=c1n(Cc2ccc(Cl)cc2F)c2sc3c(c2c2ncnn12)CCN(Cc1ccccn1)C3 [Example 130]	>7	–
COc1ccc(Cn2c(=O)n3nccc3c3cc(CN4C[C@@H](C)O[C@@H](C)C4)sc32)cc1 [Example 184]	>7	–
Cc1oc2c(c1C)c1ncnn1c(=O)n2Cc1ccc(Cl)cc1 [Example 79, 6-(4-Chlorobenzyl)-8,9-dimethylfuro[3,2-e][1,2,4]triazolo[1,5-c]pyrimidin-5(6H)-one]	–	100 to 1000 nM
COc1ccc(Cn2c(=O)n3ncnc3c3cc(CO)cnc32)cc1 [Example 217, 9-(Hydroxymethyl)-6-(4-methoxybenzyl)pyrido[3,2-e][1,2,4]triazolo[1,5-c]pyrimidin-5(6H)-one]	–	100 to 1000 nM
COc1ccc(Cn2c(=O)n3ncnc3c3cc(N4CCC(N(C)C)CC4)cnc32)cc1 [Example 199]	–	100 to 1000 nM
COc1ccc(Cn2c(=O)n3ncnc3c3c(C)c(CN(C)CC4CCOC4)sc32)cc1 (centres unmarked) [Example 59]	>7	–
COc1ccc(Cn2c(=O)n3ncnc3c3c(C)c(CN4CCOC(C)C4)sc32)cc1 (centres unmarked) [Example 70]	>7	–
COc1ccc(Cn2c(=O)n3ncnc3c3cc(CN4CCOCC4)cnc32)cc1 [Example 205]	–	100 to 1000 nM
COc1ccc(Cn2c(=O)n3ncnc3c3cc(CN4CCNCC4)cnc32)cc1 [Example 249, 6-(4-Methoxybenzyl)-9-(piperazin-1-ylmethyl)pyrido[3,2-e][1,2,4]triazolo[1,5-c]pyrimidin-5(6H)-one]	–	1000 to 10000 nM
COc1ccc(Cn2c(=O)n3ncnc3c3c(C)c(CN4CCOCC4C)sc32)cc1 (centres unmarked) [Example 71]	>7	–
O=c1n(Cc2ccccc2Cl)c2sc3c(c2c2ncnn12)CCCC3 [Example 81]	–	1000 to 10000 nM
C[C@@H]1CN(Cc2cnc3c(c2)c2ncnn2c(=O)n3Cc2cc(F)cc(Cl)c2)C[C@H](C)O1 [Example 299]	–	1000 to 10000 nM
COc1ccc(Cn2c(=O)n3ncnc3c3ncc(CN4C[C@@H](C)O[C@@H](C)C4)cc32)cc1 [Example 244]	–	1000 to 10000 nM
COc1ccc(Cn2c(=O)n3ncnc3c3cc(-c4cc(C(F)(F)F)nn4C)sc32)cc1 [Example 41, 6-(4-Methoxybenzyl)-8-(1-methyl-3-(trifluoromethyl)-1H-pyrazol-5-yl)thieno[3,2-e][1,2,4]triazolo[1,5-c]pyrimidin-5(6H)-one]	>7	–

SMILES	PDE1B pIC50	IC50
COc1ccc(Cn2c(=O)n3ncnc3c3cc(CN(C)C4CCCCC4)cnc32)cc1 [Example 235]	–	1000 to 10000 nM
COc1ccc(Cn2c(=O)n3ncnc3c3cc(CN4C[C@@H](C)O[C@@H](C)C4)sc32)cc1 [Example 33]	>7	–
COc1ccc(Cn2c(=O)n3ncnc3c3cc(CN4C[C@@H](C)O[C@@H](C)C4)cnc32)c(F)c1F [Example 292]	–	100 to 1000 nM
COc1ccc(Cn2c(=O)n3ncnc3c3c(C)c(CN4CCNC(=O)C4)sc32)cc1 [Example 53]	>7	–
COc1ccc(Cn2c(=O)n3ncnc3c3c4c(sc32)CN(CC2CCOCC2)CC4(F)F)c(F)c1 [Example 156]	>7	–
COc1ccc(Cn2c(=O)n3ncnc3c3c4c(sc32)N(C(=O)c2ccccc2)CCC4)cc1OC [Example 176]	–	1000 to 10000 nM
COc1ccc(Cn2c(=O)n3ncnc3c3cc(CCNC(C)c4ccccc4)cnc32)cc1 (centres unmarked) [Example 213]	–	100 to 1000 nM
COc1ccc(Cn2c(=O)n3ncnc3c3cc(C(O)CN4CCOCC4)cnc32)cc1 (centres unmarked) [Example 267, 9-(1-Hydroxy-2-morpholinoethyl)-6-(4-methoxybenzyl)pyrido[3,2-e][1,2,4]triazolo[1,5-c]pyrimidin-5(6H)-one]	–	100 to 1000 nM
COc1ccc(Cn2c(=O)n3nccc3c3cc(CN4CCOCC4)sc32)cc1 [Example 183, 4-(4-Methoxybenzyl)-2-(morpholinomethyl)pyrazolo[1,5-c]thieno[3,2-e]pyrimidin-5(4H)-one]	–	100 to 1000 nM
COc1ccc(Cn2c(=O)n3ncnc3c3c4c(sc32)N(C(=O)C2CC2)CCC4)cc1 [Example 174]	>7	–
COc1ccc(Cn2c(=O)n3ncnc3c3cc(CN4CC5CC4CO5)sc32)cc1 (centres unmarked) [Example 37]	>7	–
COc1ccc(Cn2c(=O)n3ncnc3c3c4c(sc32)CN(C(=O)C2CCNC2)CC4)cc1 (centres unmarked) [Example 181]	–	100 to 1000 nM
COc1ccc(Cn2c(=O)n3ncnc3c3cc(CN4C[C@@H](C)O[C@@H](C)C4)cnc32)cc1 [Example 220]	>7	–
COc1ccc(Cn2c(=O)n3ncnc3c3ccsc32)cc1 [Example 27]	–	100 to 1000 nM
C[C@@H]1CN(Cc2cnc3c(c2)c2ncnn2c(=O)n3Cc2ccc(C(C)(C)C)cc2)C[C@H](C)O1 [Example 280]	<5	–
O=c1n(Cc2ccc(Cl)cc2)c2ncc(CN3CCOCC3)cc2c2ncnn12 [Example 208]	–	100 to 1000 nM
COc1c(F)cc(Cn2c(=O)n3ncnc3c3cc(CN4C[C@@H](C)O[C@@H](C)C4)cnc32)cc1F [Example 291]	–	100 to 1000 nM
COc1ccc(Cn2c(=O)n3ncnc3c3cc(C(C)N4C[C@@H](C)O[C@@H](C)C4)cnc32)cc1 (stereo partly drawn) [Example 266, 9-(1-((2S,6R)-2,6-Dimethylmorpholino)ethyl)-6-(4-methoxybenzyl)pyrido[3,2-e][1,2,4]triazolo[1,5-c]pyrimidin-5(6H)-one]	>7	–
COc1ccc(Cn2c(=O)n3ncnc3c3c4c(sc32)CN(CC2CCOCC2)CCC4)cc1 [Example 147]	>7	–
O=c1n(Cc2ccc(Cl)cc2)c2sc3c(c2c2ncnn12)CCNC3 [Example 99, 6-(4-Chlorobenzyl)-8,9,10,11-tetrahydropyrido[4′,3′:4,5]thieno[3,2-e][1,2,4]triazolo[1,5-c]pyrimidin-5(6H)-one]	–	1000 to 10000 nM
O=c1n(Cc2ccc(Cl)cc2)c2sccc2c2ncnn12 [Example 5]	–	100 to 1000 nM
